Results taken from patent publication US20250017949A1, “METHODS AND COMPOSITIONS FOR SUPPRESSING AGING-ASSOCIATED CLONAL HEMATOPOIESIS” (The Jackson Laboratory, priority 2021, published 2025).

What was measured:
control HSCs [1] = experiment: PVA HSC culture with recombinant TNFα, cell number; type: cell-based, mouse
Text: (§1) FIGS. 6A-6I: Dnmt3a-mutant HSCs maintain self-renewal and generate B lymphoid cells following TNF stimulation. (FIG. 6A) Schematic of experimental design to test response of Mx-Cre control and Dnmt3a^R878H/+ HSCs to recombinant TNFα ex vivo under growth conditions that favor HSC expansion. (FIG. 6B) Normalized frequency of donor-derived cells in PB of recipient mice post-transplant. Significance calculated using mixed-effects model with Fisher's LSD. (FIG. 6C) Representative flow cytometry plots showing B cell and myeloid cell frequencies in donor derived PB at 4 weeks post-transplant. (FIG. 6D) Frequency of myeloid (left) and B cells (right) in donor derived PB at 4 weeks post-transplant. Significance calculated using two-way ANOVA with Sidak's multiple comparison's test. (FIG. 6E) Schematic of experimental design to test TNFα response of Fgd5-Cre^ERT control vs. Fgd5-Cre^ERT Dnmt3a^R878H/+ HSCs, and germline Dnmt3a^+/+ vs. Dnmt3a^+/− HSCs. (FIGS. 6F-6G) Viable cell counts after 7 days of culture. Significance calculated using Brown-Forsythe and Welch ANOVA with Welch's correction. (FIG. 6H) Frequency of donor-derived cells in PB of recipient mice post-transplant. Significance calculated using mixed-effects model with Fisher's LSD. (FIG. 6I) Frequency of myeloid (left) and B cells (right) in donor derived PB at 4 weeks post-transplant. Significance calculated using one-way ANOVA with Fisher's LSD. (FIGS. 6B, 6D, and 6F-6I) Dots represent individual recipient mice, boxes show 25 to 75th percentile, line is median, whiskers show min to max. *P<0.05, **P<0.01, ***P<0.001.
(§2) To assess the extent to which TNFα directly promotes young Dnmt3a-mutant HSC survival, we added recombinant TNFα to mixed cultures of wild-type and Dnmt3a-mutant HSCs in media that sustains HSC self-renewal (FIG. 6A). […]
(§3) Two months post-poly(I:C), 25 CD45.2^+ from Dnmt3a^+/+ Mx-Cre or Dnmt3a^fl-R878H/+ Mx-Cre donors (CD45.2+) and 25 CD45.1^+/CD45.2^+ HSCs were sorted into a 96-well plate with Ham's F12 media containing final concentrations of 1× Penicillin-streptomycin-glutamine (Gibco cat. #10378-016), 10 mM HEPES (Gibco cat. #15630080), 1× Insulin-transferrin-selenium-ethanolamine (Gibco cat. #51500-056), 100 ng/mL recombinant murine TPO (Biolegend cat. #593302), 10 ng/mL recombinant murine SCF (StemCell Technologies cat. #78064), and 1 mg/mL polyvinyl alcohol (Sigma cat. #P8136)^19+/−10 ng/mL recombinant murine TNF-α (PeproTech cat. #315-01A) and cultured for seven days at 37° C. and 5% CO2. […] On day 7, half of the wells were stained and analyzed by flow cytometry and half of the wells were harvested, mixed with 1×10^6 CD45.1^+ post-ficoll whole BM cells, and transplanted into young, lethally irradiated CD45.1^+ recipients. […]

Dnmt3a-mutant HSCs [2] = experiment: PVA HSC culture with recombinant TNFα, cell number; type: cell-based, mouse; details: recombinant TNFα added to mixed cultures of wild-type and Dnmt3a^R878H HSCs
Text: as §1, §2, §3

control HSCs [3] = experiment: Transplant of TNFα-treated cultured HSCs into recipient mice; type: in vivo, mouse
Text: as §1
(§4) To assess the extent to which TNFα directly promotes young Dnmt3a-mutant HSC survival, we added recombinant TNFα to mixed cultures of wild-type and Dnmt3a-mutant HSCs in media that sustains HSC self-renewal (FIG. 6A). […] Post culture, cells were transplanted into recipient mice to assess HSC function. […] Thus, TNFα-driven myeloid regeneration at the expense of HSC self-renewal is disrupted in Dnmt3a^R878H/+ HSCs. Instead, TNFα-treated Dnmt3a^R878H/+ HSCs favor lymphoid regeneration and maintain their self-renewal. To assess this in complementary models, we used tamoxifen-inducible Fgd5-Cre-driven Dnmt3a^R878H/+ mice as well as germline Dnmt3a^+/− mice to isolate HSCs for TNFα stimulation (FIG. 6E). […] Thus, TNFα-induced HSC survival and disrupted myeloid regeneration are broadly relevant to Dnmt3a-mutant clonal hematopoiesis.
(§5) Two months post-poly(I:C), 25 CD45.2^+ from Dnmt3a^+/+ Mx-Cre or Dnmt3a^fl-R878H/+ Mx-Cre donors (CD45.2+) and 25 CD45.1^+/CD45.2^+ HSCs were sorted into a 96-well plate with Ham's F12 media containing final concentrations of 1× Penicillin-streptomycin-glutamine (Gibco cat. #10378-016), 10 mM HEPES (Gibco cat. #15630080), 1× Insulin-transferrin-selenium-ethanolamine (Gibco cat. #51500-056), 100 ng/mL recombinant murine TPO (Biolegend cat. #593302), 10 ng/mL recombinant murine SCF (StemCell Technologies cat. #78064), and 1 mg/mL polyvinyl alcohol (Sigma cat. #P8136)^19+/−10 ng/mL recombinant murine TNF-α (PeproTech cat. #315-01A) and cultured for seven days at 37° C. and 5% CO2. TNF-α was spiked into the cultures on day 4 and 6. On day 7, half of the wells were stained and analyzed by flow cytometry and half of the wells were harvested, mixed with 1×10^6 CD45.1^+ post-ficoll whole BM cells, and transplanted into young, lethally irradiated CD45.1^+ recipients. PB was tracked monthly for six months post-transplant via flow cytometry.

Dnmt3a-mutant HSCs [4] = experiment: as above; type: in vivo, mouse
Text: as §1, §4, §5

[5] = donor-derived cells in PB post-transplant, FIG. 6B
[6] = post-transplant, data not shown

Question: For TNFα, which “Number of control cells produced over the culture period” value (control HSCs [1]; Mx-Cre control, 10 ng/mL TNF-α, seven days, data not shown) is on record?
Answer: The value was “reduced the number of control”.

Question: What about the “Viable cell counts of control cells after 7 days of culture” value (control HSCs [1]; controls of the Fgd5-Cre and germline Dnmt3a^+/− models, FIGS. 6F-6G) of the same substance?
Answer: Its value is “reduced the number of control”.

Question: And the “Wild-type progeny in mixed cultures” value (control HSCs [1]; recombinant TNFα added to mixed cultures of wild-type and Dnmt3a^R878H HSCs)?
Answer: Its value is “depletion of wild-type progeny”.

Question: And the “Maintenance of Dnmt3a^R878H HSC progeny in mixed cultures” value (Dnmt3a-mutant HSCs [2])?
Answer: The value was “preferential maintenance of Dnmt3a^R878H HSC progeny”.

Question: What about the “Long-term multilineage engraftment of TNFα-treated control HSCs” value (control HSCs [3]; [5]) of the same substance?
Answer: The value was “did not sustain long-term multilineage engraftment”.

Question: And the “HSC, MPP^Mk/E and MPP^G/M populations in bone marrow from TNFα-treated control HSCs” value (control HSCs [3]; [6])?
Answer: Its value is “trends toward reduced HSC, MPP^Mk/E, and MPP^G/M populations”.

Question: And the “Dnmt3a^+/− B lymphoid relative to myeloid cell production” value (Dnmt3a-mutant HSCs [4]; donor-derived PB at 4 weeks post-transplant, FIG. 6I)?
Answer: The value was “transiently increased Dnmt3a^+/− B lymphoid relative to myeloid cell production”.

Question: And the “Dnmt3a^R878H/+ B lymphoid cell production” value (Dnmt3a-mutant HSCs [4]; donor-derived PB at 4 weeks post-transplant, FIGS. 6C-6D)?
Answer: The value was “transiently increased Dnmt3a^R878H/+ B lymphoid cell production”.

Question: What about the “Mature hematopoietic cell production and engraftment of TNFα-treated Dnmt3a^R878H/+ HSCs” value (Dnmt3a-mutant HSCs [4]; [5]) of the same substance?
Answer: Its value is “increased production of mature hematopoietic cells in the short term (4 weeks post-transplant) followed by sustained multilineage engraftment”.

Question: What about the “HSC, MPP^Mk/E and MPP^G/M populations in bone marrow from TNFα-treated Dnmt3a^R878H/+ HSCs” value (Dnmt3a-mutant HSCs [4]; [6]) of the same substance?
Answer: The value was “not observed in TNFα-treated Dnmt3a^R878H/+ HSCs”.

Question: What about the “Multilineage engraftment of TNFα-treated Dnmt3a^+/− HSCs” value (Dnmt3a-mutant HSCs [4]; vs TNFα-treated control HSCs, FIG. 6H) of the same substance?
Answer: Its value is “sustained multilineage engraftment at a higher frequency than TNFα-treated control HSCs”.
